In brackets after ≈: the same amount, converted by molar mass. Bounds are passed on as bounds.

Usually MIC stands for the smallest concentration in the dilution series that meets the test's criterion for growth inhibition.

Assay [1] deals with peptic ulcer. The following applies: H2-blocker / proton-pump inhibitor; cited from earlier work.
For assay [2], the system named is Helicobacter pylori standard strain ATCC 43526 (NCTC 11916). Description: Antibacterial test 1: agar plate dilution method (anaerobic MIC method) against Hp. Format: cell-based. The following applies: 72 h; Helicobacter pylori ATCC 43526 (NCTC 11916); brucella agar + 7% horse blood, microaerobic, 37° C., 3 days. The method, then: Antibacterial test against Hp was performed in substantial accordance with agar plate dilution method (anaerobic MIC method) based on Standard method of The Japan Society of Chemotherapy to determine minimum inhibitory concentration (MIC) of the respective test compounds. The respective test compounds were sequentially dissolved in dimethyl sulfoxide (DMSO) and serially diluted twofold. […] Strain used for inoculation was Helicobacter pylori standard strain ATCC 43526 (NCTC 11916). For pre-culturing of bacteria to be inoculated, the above-mentioned strain freezingly conserved at -135° C. was thawed in a warm bath (40° C.), applied on a brucella agar medium containing 7% horse blood free from fibrin, and microaerobically cultured in a jar for anaerobic bacteria at 37° C. for 3 days. The solution of bacteria to be inoculated was prepared by collecting colonies grown on the culture medium and suspending the same in the brucella broth.

Assay [3] has as its system S.aureus FDA 209P. Kind of assay: Antibacterial Test 2: agar plate dilution method (aerobic MIC method), S.aureus. Format: cell-based. The following applies: Staphylococcus aureus, FDA209P, sensitive-disk agar medium-N. Here is the method: (§1) Then, tested were antibacterial activities of the typical compounds of the present invention against gram-positive and-negative bacteria other than Hp. MICs of the typical compounds of the present invention were determined in substantial accordance with agar plate dilution method (aerobic MIC method) based on Standard method of The Japan Society of Chemotherapy.
(§2) The respective test compound were dissolved in dimethyl sulfoxide (DMSO) and serially diluted twofold. These diluted solutions of the compounds were respectively added to sensitive-disk agar medium-N (manufactured by NISSUI SEIYAKU) to prepare agar plates for determination with concentration of 0.05-100 μg/ml.
(§3) The below-mentioned strains freezingly conserved at -135° C. were thawed in a warm bath (40° C.), cultured in a sensitivity-determining bouillon at 37° C. for 18-20 hours, and then diluted with the above-mentioned medium to prepare about 1.0×10^6CFU/ml of bacterial solution.
(§4) Inoculation was made by 5 μl by multi-inoculator (manufactured by SAKUMA SEISAKUSHO). Culturing was made under the same conditions as those of the pre-culturing and the MIC (unit: μg/ml) was determined by observing whether the bacteria grew or not.

Assay [4] relates to M.luteus ATCC 9341. Description: Antibacterial Test 2: agar plate dilution method (aerobic MIC method), M.luteus. In kind it is cell-based. The following applies: Micrococcus luteus, ATCC9341, sensitive-disk agar medium-N. The method, then: as §1, §2, §3, §4
Assay [5] concerns E.faecalis RIMD 3336001. Kind of assay: Antibacterial Test 2: agar plate dilution method (aerobic MIC method), E.faecalis. In kind it is cell-based. The following applies: Enterococcus faecalis, RIMD3336001, sensitive-disk agar medium-N. The method, then: as §1, §2, §3, §4
The test system of assay [6] is B.subtilis PCI 219. Kind of assay: Antibacterial Test 2: agar plate dilution method (aerobic MIC method), B.subtilis. Format: cell-based. The following applies: Bacillus subtilis, PCI219, sensitive-disk agar medium-N. The method, then: as §1, §2, §3, §4
Assay [7] concerns E.coli NIHJ JC-2. Description: Antibacterial Test 2: agar plate dilution method (aerobic MIC method), E.coli. In kind it is cell-based. The following applies: Escherichia coli, NIHJJC2, sensitive-disk agar medium-N. Here is the method:
as §1, §2, §3, §4

Assay [8] concerns K.pneumoniae PCI 602. Kind of assay: Antibacterial Test 2: agar plate dilution method (aerobic MIC method), K.pneumoniae. In kind it is cell-based. The following applies: Klebsiella pneumoniae, PCI602, sensitive-disk agar medium-N. Here is the method: as §1, §2, §3, §4
Assay [9] deals with P.aeruginosa IFO 3445. Kind of assay: Antibacterial Test 2: agar plate dilution method (aerobic MIC method), P.aeruginosa. In kind it is cell-based. The following applies: Pseudomonas aeruginosa, IFO3445, sensitive-disk agar medium-N. Here is the method: as §1, §2, §3, §4

Consider `COc1ccc2[nH]c([S+]([O-])Cc3ncc(C)c(OC)c3C)nc2c1` (centres unmarked) [omeprazole], for which, in [1], the cure rate is on record as 80-90%.

For the molecule `S=c1cc[nH]c2cc(-c3ccccc3)ccc12` [compound 3, 7-Phenylquinoline-4(1H)-thione], the MIC is 1.56 µg/mL in assay [2]; > 100 µg/mL in [3]; > 100 µg/mL in [4]; > 100 µg/mL in assay [5]; > 100 µg/mL in assay [6]; > 100 µg/mL in assay [7]. For the same molecule, the minimal inhibitory concentration (MIC) in [8] and in assay [9] was > 100 µg/mL in each case.

For `S=c1cc[nH]c2cc(SCc3ccccc3)ccc12` [compound 37, 7-Benzylthioquinoline-4(1H)-thione], the minimal inhibitory concentration (MIC) in [2] was 0.78 µg/mL; in assay [3], > 100 µg/mL; in [4], > 100 µg/mL; in assay [5], > 100 µg/mL; in assay [6] it was > 100 µg/mL; in assay [7], > 100 µg/mL. Besides, the minimum inhibitory concentration (MIC) in assay [8] and in assay [9] was > 100 µg/mL each time.

Take `CC(C)Sc1ccc2c(=S)cc[nH]c2c1` [compound 49, 7-Isopropylthioquinoline-4(1H)-thione]: the MIC in assay [2] is 0.39 µg/mL; in assay [3], > 100 µg/mL; in assay [4] it was > 100 µg/mL; in [5] it was > 100 µg/mL; in assay [6] it was > 100 µg/mL; in assay [7], > 100 µg/mL. Besides, the MIC in assay [8] and in assay [9] was > 100 µg/mL throughout.

Take `CN/C(=N/CCSCc1nc[nH]c1C)NC#N` [cimetidine]: in [1], the cure rate is 80-90%.

For the molecule `CCCCCCCCCCCCc1ccc2c(=S)cc[nH]c2c1` [compound 30, 7-Dodecylquinoline-4(1H)-thione], the MIC is 1.56 µg/mL in [2]; > 100 µg/mL in assay [3]; 100 µg/mL (≈ 303 µM) in [4]; > 100 µg/mL in assay [5]; > 100 µg/mL in assay [6]; > 100 µg/mL in [7]. Moreover, the minimum inhibitory concentration (MIC) in [8] and in assay [9] was > 100 µg/mL throughout.

For `Cc1c(OCC(F)(F)F)ccnc1C[S+]([O-])c1nc2ccccc2[nH]1` (centres unmarked) [lansoprazole, reference compound], the MIC was 12.5 µg/mL in [2]; > 100 µg/mL in assay [3]; > 100 µg/mL in [4]; > 100 µg/mL in [5]; > 100 µg/mL in [6]; > 100 µg/mL in [7]. For the same molecule, the MIC in assay [8] and in [9] was > 100 µg/mL in each case.

Consider `S=c1cc[nH]c2cc(N3CCOCC3)ccc12` [compound 36, 7-Morpholinoquinoline-4(1H)-thione], for which the MIC was 0.39 µg/mL in assay [2]; 100 µg/mL (≈ 406 µM) in assay [3]; 100 µg/mL (≈ 406 µM) in assay [4]; > 100 µg/mL in assay [5]; 100 µg/mL (≈ 406 µM) in assay [6]; > 100 µg/mL in assay [7]. Moreover, the MIC in assay [8] and in assay [9] was > 100 µg/mL in each case.

`CC(C)N(C)c1ccc2c(=S)cc[nH]c2c1` [compound 34, 7-(N-Isopropyl-N-methylamino)quinoline-4(1H)-thione]: the MIC in assay [2] was 0.78 µg/mL; in assay [3], > 100 µg/mL; in assay [4], > 100 µg/mL; in assay [5] it was > 100 µg/mL; in assay [6], > 100 µg/mL; in [7], > 100 µg/mL. Further, the minimal inhibitory concentration (MIC) in [8] and in assay [9] was > 100 µg/mL each time.

`COCc1ccc2c(=S)cc[nH]c2c1` [compound 16, 7-Methoxymethylquinoline-4(1H)-thione]: the MIC in assay [2] was 1.56 µg/mL; in assay [3], 50 µg/mL (≈ 244 µM); in assay [4], 100 µg/mL (≈ 487 µM); in [5], 50 µg/mL (≈ 244 µM); in [6], 100 µg/mL (≈ 487 µM); in assay [7] it was > 100 µg/mL. Also, the MIC in [8] and in [9] was > 100 µg/mL throughout.

For `CCOc1ccc2c(=S)cc[nH]c2c1` [compound 22, 7-Ethoxyquinoline-4(1H)-thione], the minimum inhibitory concentration (MIC) in [2] is 3.13 µg/mL; in [3], > 100 µg/mL; in [4] it was > 100 µg/mL; in assay [5], > 100 µg/mL; in [6], > 100 µg/mL; in [7], > 100 µg/mL. Also, the MIC in assay [8] and in assay [9] was > 100 µg/mL each time.

Take `CC(=O)OCc1ccc2c(=S)cc[nH]c2c1` [compound 29, 7-Acetoxymethylquinoline-4(1H)-thione]: the minimal inhibitory concentration (MIC) in [2] is 0.78 µg/mL; in assay [3], 25 µg/mL (≈ 107 µM); in assay [4], 50 µg/mL (≈ 214 µM); in assay [5], 50 µg/mL (≈ 214 µM); in [6], 100 µg/mL (≈ 429 µM); in [7], > 100 µg/mL. Besides, the MIC in [8] and in assay [9] was > 100 µg/mL in each case.

In the case of `S=c1cc[nH]c2cc(/C=C/c3ccccc3)ccc12` [compound 32, trans-7-Styrylquinoline-4(1H)-thione], the minimum inhibitory concentration (MIC) in [2] was 0.78 µg/mL; in assay [3] it was > 100 µg/mL; in assay [4], > 100 µg/mL; in assay [5] it was > 100 µg/mL; in [6], > 100 µg/mL; in assay [7], > 100 µg/mL. The MIC in [8] and in [9] was > 100 µg/mL each time.

`CCCCCCOc1ccc2c(=S)cc[nH]c2c1` [compound 24, 7-n-Hexyloxyquinoline-4(1H)-thione]: the MIC was 1.56 µg/mL in [2]; > 100 µg/mL in [3]; > 100 µg/mL in assay [4]; > 100 µg/mL in assay [5]; > 100 µg/mL in assay [6]; > 100 µg/mL in assay [7]. For the same molecule, the minimum inhibitory concentration (MIC) in [8] and in [9] was > 100 µg/mL in each case.

For the molecule `S=c1cc[nH]c2c1ccc1ccccc12` [compound 39, Benzo[h]quinoline-4(1H)-thione], the MIC in assay [2] was 0.39 µg/mL; in assay [3], > 100 µg/mL; in [4] it was > 100 µg/mL; in assay [5], > 100 µg/mL; in assay [6] it was > 100 µg/mL; in assay [7], > 100 µg/mL. Moreover, the MIC in assay [8] and in assay [9] was > 100 µg/mL throughout.

For the molecule `CCCCCCCCOc1ccc2c(=S)cc[nH]c2c1` [compound 53, 7-Octyloxyquinoline-4(1H)-thione], the minimal inhibitory concentration (MIC) is 3.13 µg/mL in [2]; > 100 µg/mL in assay [3]; > 100 µg/mL in assay [4]; > 100 µg/mL in assay [5]; > 100 µg/mL in assay [6]; > 100 µg/mL in [7]. In addition, the minimal inhibitory concentration (MIC) in assay [8] and in [9] was > 100 µg/mL in each case.

Consider `COc1ccc2c(=S)cc[nH]c2c1` [compound 1, 7-Methoxyquinoline-4(1H)-thione], for which the MIC in assay [2] is 0.39 µg/mL; in [3], 50 µg/mL (≈ 261 µM); in [4], > 100 µg/mL; in assay [5], > 100 µg/mL; in assay [6] it was > 100 µg/mL; in assay [7], > 100 µg/mL. In addition, the MIC in assay [8] and in assay [9] was > 100 µg/mL each time.

For the molecule `CCCOc1ccc2c(=S)cc[nH]c2c1` [compound 26, 7-n-Propoxyquinoline-4(1H)-thione], the minimal inhibitory concentration (MIC) in [2] was 1.56 µg/mL; in [3], 100 µg/mL (≈ 456 µM); in assay [4], > 100 µg/mL; in assay [5], > 100 µg/mL; in [6], > 100 µg/mL; in assay [7] it was > 100 µg/mL. Besides, the MIC in assay [8] and in assay [9] was > 100 µg/mL in each case.

As for `S=c1cc[nH]c2cc(N3CCNCC3)ccc12` [compound 54, 7-(1-Piperazinyl)quinoline-4(1H)-thione], the MIC in [2] was 3.13 µg/mL; in [3], 100 µg/mL (≈ 408 µM); in assay [4] it was > 100 µg/mL; in [5] it was > 100 µg/mL; in assay [6] it was > 100 µg/mL; in [7], > 100 µg/mL. In addition, the minimum inhibitory concentration (MIC) in assay [8] and in assay [9] was > 100 µg/mL in each case.

As to `CC(C)Oc1ccc2c(=S)cc[nH]c2c1` [compound 23, 7-Isopropyloxyquinoline-4(1H)-thione], the MIC is 0.78 µg/mL in [2]; > 100 µg/mL in [3]; > 100 µg/mL in [4]; > 100 µg/mL in [5]; > 100 µg/mL in [6]; > 100 µg/mL in assay [7]. Also, the minimum inhibitory concentration (MIC) in [8] and in [9] was > 100 µg/mL each time.

(Values after US5773449A, “Thioquinolone compounds which have useful pharmaceutical activity” (Zenyaku Kogyo Kabushiki Kaisha, priority 1994, dated 1998).)
